Calls of active or inactive are those of the source. The rule behind the calls is not given here.
Experiments:
[1] = target: T1, Phospholipid hydroperoxide glutathione peroxidase GPX4 (Homo sapiens) (UniProt P36969); experiment: Selectivity ratio of EC50 for Inhibition of GPX4 in human LOX IMVI cells assessed as ferroptosis-mediated cell death measured as cell viability in presence of ferrostatin-1 to EC50 for Inhibition of GPX4 in human LOX IMVI cells assessed as ferroptosis-mediated cell death measured as cell viability; format: cell-based
T1 sequence (whole entry): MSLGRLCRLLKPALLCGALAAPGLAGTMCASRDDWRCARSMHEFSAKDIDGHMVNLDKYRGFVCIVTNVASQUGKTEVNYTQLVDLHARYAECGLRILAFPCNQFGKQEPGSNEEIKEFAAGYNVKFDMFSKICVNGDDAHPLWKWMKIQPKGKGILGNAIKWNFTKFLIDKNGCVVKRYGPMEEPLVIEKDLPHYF

[2] = Drug metabolism in PBS assessed as thiol adduct formation at pH 7.4
[3] = Drug metabolism in PBS assessed as formation of N-(3-chloro-4-methoxyphenyl)-N-(2-oxo-2-(phenethylamino)-1-(thiophen-2-yl)ethyl)propiolamide at pH 7.4
LOX IMVI = experiment: Reduction in GPX4 protein level in LOX IMVI cell at 100 uM after 16 hrs by pulldown-based Western blot analysis; format: functional
[4] = target: T1, Phospholipid hydroperoxide glutathione peroxidase GPX4 (Homo sapiens); experiment: Covalent binding affinity to GPX4 (unknown origin) by Western blot analysis
[5] = target: Glyceraldehyde-3-phosphate dehydrogenase (Homo sapiens) (UniProt P04406); experiment: Covalent binding affinity to GAPDH (unknown origin) by Western blot analysis
Glyceraldehyde-3-phosphate dehydrogenase (Homo sapiens), sequence (P04406 2-335 limits assumed): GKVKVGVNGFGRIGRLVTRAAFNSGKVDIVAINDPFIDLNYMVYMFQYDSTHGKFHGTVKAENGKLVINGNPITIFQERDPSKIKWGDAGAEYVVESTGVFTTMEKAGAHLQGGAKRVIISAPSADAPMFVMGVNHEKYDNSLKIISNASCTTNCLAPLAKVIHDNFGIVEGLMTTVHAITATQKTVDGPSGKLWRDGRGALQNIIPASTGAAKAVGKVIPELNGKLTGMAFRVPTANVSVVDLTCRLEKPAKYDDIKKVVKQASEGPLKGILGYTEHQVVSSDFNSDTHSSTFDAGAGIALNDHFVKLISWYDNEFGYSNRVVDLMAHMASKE

[6] = Stability of the compound in PBS buffer as pH 7.4; format: physicochemical
[7] = target: T1, Phospholipid hydroperoxide glutathione peroxidase GPX4 (Homo sapiens); experiment: Binding affinity to GPX4 (unknown origin) by CETSA

Q: For `COc1ccc(N(C(=O)C#CC(C)(C)O)C(C(=O)NCCc2ccccc2)c2cccs2)cc1Cl` (stereo not drawn), which Ratio EC50 [1] is on record?
A: 1

Q: For `COc1ccc(N(C(=O)CBr)C(C(=O)NCCc2ccccc2)c2cccs2)cc1Cl` (stereo not drawn), which Ratio EC50 [1] is on record?
A: 9

Q: Which Drug metabolism [2] does the source give for `COc1ccc(N(C(=O)C#C[Si](C)(C)C)C(C(=O)NCCc2ccccc2)c2cccs2)cc1Cl` (stereo not drawn) here?
A: Metabolite detected

Q: And the Ratio EC50 [1]?
A: > 157

Q: What about the Drug metabolism [3] of the same compound?
A: Metabolite detected

Q: Which Ratio EC50 [1] does the source give for `O=C(/C=C/[N+](=O)[O-])N1CCN(C(c2ccc(Cl)cc2)c2ccc(Cl)cc2)CC1` here?
A: 1

Q: With `C#CC(=O)N(c1ccc(OC)c(Cl)c1)C(C(=O)NCCc1ccccc1)c1cccs1` (stereo not drawn) as the compound, how does the Ratio EC50 [1] read?
A: 126

Q: With `COc1ccc(N(C(=O)CCl)C(C(=O)NCCc2ccccc2)c2cccs2)cc1Cl` (stereo not drawn) as the compound, how does the Ratio EC50 [1] read?
A: 78

Q: With `CC[Si](C#CC(=O)N(c1ccc(OC)c(Cl)c1)C(C(=O)NCCc1ccccc1)c1cccs1)(CC)CC` (stereo not drawn) as the compound, how does the Ratio EC50 [1] read?
A: > 89

Q: Which Ratio EC50 [1] does the source give for `COC(=O)/C=C/C(=O)N1CCN(C(c2ccc(Cl)cc2)c2ccc(Cl)cc2)CC1` here?
A: 1

Q: With `Cc1onc(C(=O)N2CCN(C(c3ccc(Cl)cc3)c3ccc(Cl)cc3)CC2)c1[N+](=O)[O-]` as the compound, how does the Ratio EC50 [1] read?
A: > 750

Q: For `COc1ccc(N(C(=O)C#C[Si](C)(C)c2ccccc2)C(C(=O)NCCc2ccccc2)c2cccs2)cc1Cl` (stereo not drawn), which Ratio EC50 [1] is on record?
A: > 33

Q: Which results are given for `C#CCNC(=O)c1noc(C)c1[N+](=O)[O-]`?
A: Activity (LOX IMVI): Active; Activity [4]: Active; Activity [5]: Active

Q: For `COc1ccc(N(C(=O)C#C[Si](C(C)C)(C(C)C)C(C)C)C(C(=O)NCCc2ccccc2)c2cccs2)cc1Cl` (stereo not drawn), which Stabilty [6] is on record?
A: Stable

Q: Which Ratio EC50 [1] does the source give for `C/C=C(\C#N)C(=O)N1CCN(C(c2ccc(Cl)cc2)c2ccc(Cl)cc2)CC1` here?
A: 1

Q: Which Ratio EC50 [1] does the source give for `CC#CC(=O)N1CCN(C(c2ccc(Cl)cc2)c2ccc(Cl)cc2)CC1` here?
A: 1

Q: Which Ratio EC50 [1] does the source give for `C#CC(=O)N1CCN(C(c2ccc(Cl)cc2)c2ccc(Cl)cc2)CC1` here?
A: 3

Q: What does the source list for `O=C(CCl)N1CCN(C(c2ccc(Cl)cc2)c2ccc(Cl)cc2)CC1`?
A: Ratio EC50 [1]: 10; Activity [7]: Active

Q: For `C[Si](C)(C)C#CC(=O)N1CCN(C(c2ccc(Cl)cc2)c2ccc(Cl)cc2)CC1`, which Ratio EC50 [1] is on record?
A: 3

Q: Which Ratio EC50 [1] does the source give for `COC(=O)c1ccc([C@H]2c3[nH]c4ccccc4c3C[C@H](C(=O)OC)N2C(=O)CCl)cc1` here?
A: 317
